Assay results from patent US6479544B1, “Therapeutic combinations of fatty acids” (Laxdale Limited, priority 2001, dated 2002).
Read-outs that look alike come from different tables or passages of the source.

Experiments:
[1] = test system: patients with schizophrenia; assay: Pilot study of AA alone in five patients with schizophrenia; assay type: in vivo, human; settings: AA given alone
Excerpt: This interpretation was supported by a pilot study in which AA itself was given to five patients with schizophrenia. […] The administration of AA, without EPA to inhibit phospholipases, may lead to increased formation of eicosanoids rather than to incorporation of AA into phospholipids.

[2] = test system: patients with schizophrenia; assay: AA given to two patients who had already been taking EPA; assay type: in vivo, human; settings: AA 1 g/day added in two patients already taking 2 g/day EPA for 3 months
Excerpt: The conclusion to be drawn from these studies is that EPA is desirable, not in itself but because it raises the AA level in membrane phospholipids. High doses of EPA, far from being valuable in themselves, may be undesirable because they lead to excessive loss of AA from membranes. The way to get around this issue, and to boost the clearly desirable effects of EPA, is to keep to relatively low doses of EPA, but also to boost the level of AA by administering the EPA with either AA or one of its precursors, DGLA or gamma-linolenic acid GLA.

[3] = test system: schizophrenia in patients; assay: Trial of placebo and three doses of EPA in schizophrenia patients also taking clozapine, assessed by PANSS at baseline and 12 weeks; assay type: in vivo, human
Description: A trial was conducted of the administration of a placebo and three different doses of EPA, 1 g, 2 g and 4 g/day in the treatment of schizophrenia in patients who were also taking the antischizophrenic drug clozapine. […] 31 patents were entered into the study and followed for 12 weeks. They were assessed at baseline and 12 weeks using the Positive and Negative Symptom Scale for Schizophrenia (PANSS). Placebo produced a small effect, 1 g/day produced a larger effect, 2 g/day produced a large effect of 26.0% compared to the usual 15-20% improvements on this scale generated by existing drugs for schizophrenia.

[4] = assay type: in vivo, human; settings: + means a rise, − a fall
Description: In these patients, and also in a further series of patients, the levels of DGLA, AA, EPA and DHA were measured in human red cells before starting treatment and after 12 weeks. As expected there was a dose-related rise in EPA which was greater the greater the dose. It was also expected that there would be a progressive decline in AA, the larger the EPA dose, the greater the fall in AA.

| SMILES | Condition of patients with schizophrenia [1] | Condition of patients with schizophrenia [2] | Percentage improvement from baseline to 12 weeks on PANSS ([3]; 2 g/day) [%] | Change from baseline to 12 weeks in red cell concentration of AA ([4]; 1 g/d) | Change from baseline to 12 weeks in red cell concentration of AA ([4]; 2 g/d) | Change from baseline to 12 weeks in red cell concentration of AA ([4]; 4 g/d) [µg/g] | Percentage improvement from baseline to 12 weeks on PANSS ([3]; 1 g/day) [%] | Percentage improvement from baseline to 12 weeks on PANSS ([3]; 4 g/day) [%] |
| --- | --- | --- | --- | --- | --- | --- | --- | --- |
| CCCCC/C=C\C/C=C\C/C=C\C/C=C\CCCC(=O)O [AA, arachidonic acid] | their condition deteriorated | substantial further improvement | – | – | – | – | – | – |
| CC/C=C\C/C=C\C/C=C\C/C=C\C/C=C\CCCC(=O)O [EPA, eicosapentaenoic acid] | – | – | 26.0 | – | – | – | – | – |
| CC/C=C\C/C=C\C/C=C\C/C=C\C/C=C\CCCC(=O)OCC [ethyl eicosapentaenoate] | – | – | 26.0 | +2.7 μg/g | +29.4 μg/g | -26.5 | 18.3 | 16.3 |
